From paper PMC7423924, “A fluorogenic cyclic peptide for imaging and quantification of drug-induced apoptosis” (Nature Communications, 2020)
“And” between values parts separate entries of the source, which are not always exact repeats. Equal entries are not always repeated.

B1: Annexin-FITC: FITC-labeled annexin V (protein, UniProt P08758 2-320, looked up)
Annexin A5: AQVLRGTVTDFPGFDERADAETLRKAMKGLGTDEESILTLLTSRSNAQRQEISAAFKTLFGRDLLDDLKSELTGKFEKLIVALMKPSRLYDAYELKHALKGAGTNEKVLTEIIASRTPEELRAIKQVYEEEYGSSLEDDVVGDTSGYYQRMLVVLLQANRDPDAGIDEAQVEQDAQALFQAGELKWGTDEEKFITIFGTRSVSHLRKVFDKYMTISGFQIEETIDRETSGNLEQLLLAVVKSIRSIPAYLAETLYYAMKGAGTDDHTLIRVMVSRSEIDLFNIRKEFRKNFATSLYSMIKGDTSGDYKKALLLLCGEDD
modifications: FITC label
notes: FITC-labeled annexin V

Tests used:
human neutrophils = assay: CDKi-induced, caspase-dependent neutrophil apoptosis detected with Apo-15; format: cell-based; details: R-roscovitine 20 µM (CDKi), QVD 10 μM, single replicates Data 1-4
Method: First, we confirmed that Apo-15 could detect CDKi-induced apoptosis in vitro. […] Apo-15 staining of CDKi-induced apoptosis was also caspase-dependent as confirmed by a significant reduction in the fluorescent signal after treatment with the caspase inhibitor QVD[34] (Fig. 5a). Next, we induced ALI in vivo in mice by intratracheal administration of E. coli-derived LPS (1 μg per mouse), and the apoptotic load in the lungs relative to saline control was increased by intraperitoneal administration of CDKi AT7519[38] (Fig. 5b). In all mice, we administered Apo-15 in vivo and, 30 min later, we collected bronchoalveolar lavage fluid (BALF) together with lung tissues. BALF and lung slices from LPS-only and LPS + CDKi mice were analyzed by multiparameter flow cytometry to determine the proportion of apoptotic cells that had been stained by Apo-15 in vivo (gating strategy in Supplementary Fig. 15). […] Furthermore, we quantified the effects of CDKi-induced apoptosis in vivo by measuring the percentages of apoptotic neutrophils in total cell counts. […] We confirmed that CD45 + Ly6G+ cells labeled by Apo-15 in vivo were apoptotic by co-staining with AF647-Annexin V ex vivo (Fig. 5d). Next, we acquired fluorescence microscopy images of lung tissue sections from mice under different regimes (Fig. 5c, e). […]

[1] = design: method as in 2 sources, ref Table 1 ||| ref [8],[60],[19],[61],[63],[64],[66],[67] = [8]; PMID 19966809; doi:10.1038/nmeth.1405; 8. Kim YE Chen J Chan JR Langen R Engineering a polarity-sensitive biosensor for time-lapse imaging of apoptotic processes and degeneration Nat. Methods 2010 7 67 73 19966809 10.1038/nmeth.1405 PMC284 || [60]; PMID 20671723; doi:10.1038/nprot.2010.101; 60. Kim YE Chen J Langen R Chan JR Monitoring apoptosis and neuronal degeneration by real-time detection of phosphatidylserine externalization using a polarity-sensitive indicator of viability and apo || [19]; PMID 17051335; doi:10.1007/s10495-006-0282-7; 19. Aloya R Molecular imaging of cell death in vivo by a novel small molecule probe Apoptosis 2006 11 2089 2101 17051335 10.1007/s10495-006-0282-7 PMC2782107 || [61]; PMID 16317537; doi:10.1007/s00259-005-1905-x; 61. Damianovich M ApoSense: a novel technology for functional molecular imaging of cell death in models of acute renal tubular necrosis Eur. J. Nucl. Med. Mol. Imaging 2006 33 281 291 16317537 10.1007 || [63]; PMID 15113694; doi:10.1016/j.ab.2004.01.020; 63. Garcia Fernandez MI Ceccarelli D Muscatello U Use of the fluorescent dye 10-N-nonyl acridine orange in quantitative and location assays of cardiolipin: a study on different experimental models Ana; details: cited from earlier work; for Brightness (φ × ε): Table 1, commercial probes, ref [8],[60],[19],[61],[63],[64],[66],[67]
apoptotic neutrophils = assay: Signal-to-noise ratios in imaging of apoptotic neutrophils; format: cell-based, human; details: apoptotic cells, excitation 488 nm, same settings; response to reviewers
Method: Signal-to-noise ratios for apoptotic neutrophils labeled with FITC-Annexin V or Apo-15 were determined after image acquisition under the same laser power and gain and analysis using ImageJ. Briefly, raw images were converted into 16-bit grayscale images and average fluorescence intensities in labeled cells and in the background were measured (≥150 points per condition). Experiments were performed in triplicate.
Supplementary Figure 14. Quantification of the fluorescence signal-to-noise (S/N) ratios in apoptotic neutrophils after staining with Apo -15 (100 nM) or FITC-Annexin V (25 nM) and image acquisition under the same experimental conditions
(excitation/emission filters: 488 nm /525 nm). Data presented as mean values±SEM (n=3-4 independent cells from 3 independent experiments). Source data are provided […]
FIT C, AlexaFluor647). […]
In imaging experiment in mice, the fluorescence signals were not found along membranes in the cells. […]
First, we have included flow cytometric data from BALs of LPS-treated mice that were not given Apo- 15, which conf irm ed the lack of green fluorescence in viable CD45+CD11c+ Annexin V− macrophages (new Supplementary Figure 15 and new Supplementary Figure 18 for the results). […]

Molecule	Apo-15-positive cells (flow cytometry) (human neutrophils)	Brightness (φ × ε) [1]	other results
CC[C@H](CO)Nc1nc(NCc2ccccc2)c2ncn(C(C)C)c2n1 [CDKi, R-roscovitine]	57.1 and 64.3 and 39.1 and 90.1	–	–
CN(C)c1cccc2c(S(=O)(=O)N[C@@H](CSSC[C@H](NS(=O)(=O)c3cccc4c(N(C)C)cccc34)C(=O)O)C(=O)O)cccc12 [N,N′-Didansyl-L-cystin]	–	3000	Brightness ([1]; other environmentally-sensitive probes, ref Table 1): 3000 M⁻¹ cm⁻¹
CCCCCCCCC[n+]1c2cc(N(C)C)ccc2cc2ccc(N(C)C)cc21.[Br-] [Nonyl acridine orange]	–	20,000	–
CC[N+](C)(CC)CCC[n+]1c(-c2ccccc2)c2cc(N)ccc2c2ccc(N)cc21.[I-].[I-] [PI, propidium iodide]	–	<100	–
CC(C)[C@H](NC(=O)c1ccc2ccccc2n1)C(=O)N[C@@H](CC(=O)O)C(=O)COc1c(F)cccc1F [QVD]	3.0 and 7.0 and 2.9 and 4.0	–	–
B1	–	–	Signal-to-noise ratio (apoptotic neutrophils): ~100 fold
